In patent publication US7326768B2, “Goodpasture antigen-binding protein isoforms and protein misfolded-mediated disorders” (priority 2003, dated 2008):
“Also recorded” adds a separate entry of the source. Ends that are not written are not given here.

What was measured:
[1] = test system: CaM kinase II; conditions: known; cited from earlier work
[2] = target: T1, recombinant human GPBP (Homo sapiens, UniProt Q9Y5P4); assay: In vitro phosphorylation: GPBP kinase activity / autophosphorylation; conditions: for GPBP kinase activity in vitro (autophosphorylation): modulators at 200 μM, 10 min autophosphorylation reaction
T1 sequence (Q9Y5P4 1-624): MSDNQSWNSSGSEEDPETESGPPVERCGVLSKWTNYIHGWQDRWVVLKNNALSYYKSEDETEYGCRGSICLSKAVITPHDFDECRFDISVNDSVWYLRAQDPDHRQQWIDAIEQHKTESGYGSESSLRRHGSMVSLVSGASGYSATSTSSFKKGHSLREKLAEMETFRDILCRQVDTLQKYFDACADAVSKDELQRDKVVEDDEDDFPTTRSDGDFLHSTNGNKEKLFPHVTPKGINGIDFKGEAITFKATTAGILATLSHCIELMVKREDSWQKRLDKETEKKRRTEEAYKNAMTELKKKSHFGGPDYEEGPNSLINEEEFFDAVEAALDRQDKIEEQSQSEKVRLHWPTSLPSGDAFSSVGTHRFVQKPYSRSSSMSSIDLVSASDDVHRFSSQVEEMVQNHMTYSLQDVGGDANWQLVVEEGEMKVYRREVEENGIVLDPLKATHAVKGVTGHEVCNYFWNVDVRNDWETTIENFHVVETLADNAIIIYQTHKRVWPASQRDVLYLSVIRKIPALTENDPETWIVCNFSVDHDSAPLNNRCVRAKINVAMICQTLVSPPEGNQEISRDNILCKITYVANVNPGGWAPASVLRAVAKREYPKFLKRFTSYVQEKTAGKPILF

[3] = test system: α3(IV)NC1-expressing cells (HEK293); assay: α3(IV)NC1 conformer production in cultured cells (Western blot of culture media); format: cell-based, human; conditions: synthetic peptides 100-200 μM, organic compounds 5-50 μM, 24-48 h
[4] = test system: NZW mice; assay: Degenerative glomerulopathy in NZW mice (histochemical studies of kidney); format: in vivo
[5] = test system: CaM kinase II; assay: CaM kinase II inhibition; format: biochemical
[6] = test system: C57BL/6 mice; assay: DAB-Am-4 treatment of control mice (genetic background control); format: in vivo; conditions: C57BL/6 control mice
Experimental: Animal studies. NZW, male or female, 4-6 month-old were injected intraperitoneally either with 1 μg/g of body weight of DAB-Am-4 and/or with 20 μg/g of body weight of the Q2L or Q2D peptide. These products were administered in a volume of 500 μl of steril saline solution 3 times per week, at alternate days, during 12 consecutive weeks. Age-matched uninjected mice were used as controls. At the end of the experiment, mice were sacrificed and kidneys were fixed in 10% paraformaldehide and processed for pathological studies. Similar DAB-Am-4 treatment studies were performed on C57BL/6 animals for genetic background control.

[7] = target: T1, recombinant human GPBP; assay: Far Western blot with recombinant GPBP; format: binding; design: FLAG; made in house; host or cells: yeast; conditions: 1 μg peptide
[8] = NZW treated with DAB-Am-4 and peptide

**Q.** What does the source list for COc1ccc(S(=O)(=O)N(CCO)c2ccccc2CN(C)CC=Cc2ccc(Cl)cc2)cc1 [KN93, 2-[N-(2-hydroxyethyl)-N-(4-methoxybenzenesulfonyl)]amino-N-(4-chlorocinnamyl)-N-methylbenzylamine]?
**A.** relative inhibitory potency for CaM kinase II [1]: more potent inhibitor than KN62; GPBP kinase activity in vitro (autophosphorylation) [2]: efficiently impaired; α3(IV)NC1 conformer production in cultured cells [3]: reduced cell conformer production

**Q.** With “LATLSHCIELMVKR (not fully specified (N-terminus, C-terminus)) [Q2]” as the molecule, how does the “amyloid-like matter formation (thioflavin T or Congo red staining)” value [4, 8] read?
**A.** efficiently inhibited amyloid-like matter formation

**Q.** And the “fibrotic reaction in glomeruli” value [4, 8]?
**A.** glomeruli virtually devoid of fibrotic reaction

**Q.** What about the “fuchsinophilic material at the subendothelial space” value [4, 8] of the same molecule?
**A.** unable to reduce

**Q.** And the “material deposited in the glomerulus of suspected collagenous nature” value ([4]; NZW treated with DAB-Am-4 and peptide 20 μg/g i.p.)?
**A.** sharply reduced

**Q.** What about the “inhibition of CaM kinase II” value [5] of the same molecule?
**A.** efficiently inhibited

**Q.** And the “synergistic inhibitory effect on GPBP kinase activity” value ([2]; combined with Ca^2+CaM)?
**A.** no cooperative inhibitory effect

**Q.** What about the “synergistic inhibitory effect on GPBP kinase activity” value ([2]; combined with KN62) of the same molecule?
**A.** no cooperative inhibitory effect

**Q.** And the “GPBP kinase activity in vitro (autophosphorylation)” value [2]?
**A.** efficiently inhibited

**Q.** What about the “α3(IV)NC1 conformer production in cultured cells” value (shortened to “α3(IV)NC1 conformer production”) [3] of the same molecule?
**A.** reduction in conformer production; also recorded: efficiently inhibits; also recorded: more effective inhibiting cell conformer production than Q4

**Q.** For NCCCN(CCCN)CCCCN(CCCN)CCCN [DAB-Am-4, polypropylenimine tetraamine dendrimer, reference compound], which “progression of the glomerulopathy” value ([4]; 4-6 month-old NZW, 1 μg/g i.p. 3 times per week, 12 weeks) is on record?
**A.** acceleration of the degenerative process, resulting in premature glomerulosclerosis at 7-9 month of age

**Q.** What about the “morphological pattern of disease progression” value ([4]; NZW, DAB-Am-4 treatment) of the same molecule?
**A.** progression through Stages 3b and 4b

**Q.** What about the histological changes [6] of the same molecule?
**A.** not observed histological changes of relevance

**Q.** What about the “effect on GPBP autophosphorylation at decreasing concentrations” value ([2]; decreasing concentrations up to 10 μM) of the same molecule?
**A.** activation

**Q.** And the “GPBP kinase activity in vitro (autophosphorylation)” value [2]?
**A.** potent activator; also recorded: caused induction

**Q.** And the “α3(IV)NC1 conformer production” value [3]?
**A.** potent activator

**Q.** What about the “α3(IV)NC1 conformer production” value ([3]; listed as DAB-Am4) of the same molecule?
**A.** efficient increase in conformer production

**Q.** Which “binding of GPBP to the peptide” value [7] does the source give for “Ac-KGKPGDTGPPAAGAVMRGFVFT-NH2 [GPpep1bov]” here?
**A.** did not display binding capacity
